Measurements as given in US8628961B2, “Small molecule antagonists of phosphatidylinositol-3,4,5-triphosphate (PIP3) and uses thereof” (Tufts University, priority 2010, dated 2014).

What was measured:
VAV2 = VAV2 (Homo sapiens (Human), UniProt P52735); test: Plasma membrane translocation assay (GFP fusion); format: cell-based; conditions: PDGF stimulation
Procedure: (§1) To begin characterizing cellular activity of PITs, a PH domain translocation assay was performed, measuring PIP3-induced association of GFP-fused PH domains with the plasma membrane. This method provides useful means for monitoring status of the PH domain/PIP3 binding in the intact cells. Varnai P et al. (1999) J Biol Chem 274:10983-9. Several PH-domain-containing proteins, which are known to bind PIP3 specifically and efficiently, were examined. […] Oikawa T et al. (2004) Nat Cell Biol 6:420-6.

WAVE2 = WAVE2 (Homo sapiens (Human), UniProt Q9Y6W5); test: Plasma membrane translocation assay (GFP fusion); format: cell-based
Procedure: as §1

cancer cells = test: Cancer cell invasion through matrigel; format: cell-based
Excerpt: Simpson K J et al. (2004) Cancer Res 64:8694-701.

[1] = system: differentiated HL-60 cells; test: fMLP-stimulated cell polarization; format: cell-based; conditions: 100 μM, 2 hr
Procedure: In another set of experiments, the ability of PITs to inhibit fMLP-stimulated HL-60 cell polarization was examined. Differentiated HL-60 cells were treated with PIT-1, PIT-2, PIT-1i-1, or PIT-1i-2, each at 100 μM for 2 hr, followed by stimulation with 100 nM fMLP for 3 min. Actin was stained and analyzed using fluorescent microscopy. The number of the polarized cells was counted in five random fields.

Rac1 = Rac1 activation pull-down (GST-Pak1-PBD), western blot; format: cell-based, human; conditions: SUM159, PDGF
Procedure: Rho/Rac family, especially Rac1, plays a critical role in actin polymerization, membrane ruffling/lamellipodia formation, and cell motility (Ridley A J et al. (1992) Cell 70:401-410) downstream of the GEFs, e.g., VAV family, and upstream of the WAVE family. The effect of PITs on Rac1 activation was therefore analyzed. SUM159 cells were seeded on 10 cm^2 plates and serum starved overnight, treated with different PIT compounds at a variety of concentrations for 2 hr, and then stimulated with 100 ng/ml PDGF for 15 min. Next, cells were rinsed once with PBS, and 1 ml lysis buffer (25 mM Tris-HCl, pH 7.5, 150 mM NaCl, 5 mM MgCl2, 1% NP-40, 1 mM DTT, 5% glycerol, 1 μg/ml aprotinin, 1 μg/ml leupeptin and 1 mM PMSF) was added per plate. The cells were scraped and transferred to a microcentrifuge tube, vortexed briefly, and incubated on ice for 5 min, followed by a centrifugation at 16,000×g at 4° C. for 15 min. The supernatant was collected. A sample of the lysate was used to ensure equal protein concentration in the samples. Next, 700 μl lysate, 20 μl glutathione-sepharose beads, and 20 μg GST-human Pak1-PBD were mixed together, and the reaction mixture was incubated at 4° C. for 1 hr with gentle rocking. The beads were then washed three times with lysis buffer, and proteins were eluted by boiling beads in 50 μl of the 2×SDS sample buffer at 95-100° C. for 5 min. […]

Bcl-xL = Bcl-xL (Homo sapiens (Human), UniProt Q07817); test: NMR HSQC specificity control; format: binding
PI3K-PDK1-Akt signaling = PI3K-PDK1-Akt signaling in growth factor-stimulated SUM159 cells; format: cell-based, human
[2] = target: R86A mutant of the PH domain (Homo sapiens (Human), UniProt P31749, R86A); test: NMR HSQC binding analysis, mutant PH domain
PLC-δ PH domain = PLC-δ PH domain (Homo sapiens (Human), UniProt P51178); test: FP PIP2/PLC-δ PH domain binding assay; conditions: FIG. 5
Procedure: FIG. 5 is a graph depicting specificity and concentration-dependent competitive inhibition of PIP3-PH domain interaction by PIT-1 and PIT-2. 15 nM TMR-conjugated PIP2 were incubated with 100 nM PLC-δ PH domain in the presence or absence of the indicated concentrations of PITs (0-200 μM) for 30 min, followed by FP measurement.
In order to identify compounds that disrupt the interaction between PIP3 and PH domains, a high-throughput fluorescence polarization (FP)-binding assay was developed using recombinant 1-123 amino acid N-terminal fragment of human Akt1 (also referred to herein simply as Akt), encompassing the PH domain (PH123 protein), and fluorescent NBD-labeled PIP3 molecule. The amino acid sequence of human Akt1 is publicly available as, for example, GenBank Accession No. NP_001014432.1 (SEQ ID NO:1), and the corresponding DNA sequence is publicly available as, for example, GenBank Accession No. NM_001014432. Briefly, 5 μM recombinant GST fusion proteins containing 1-123 a.a. N-terminal fragment of human Akt1 (PH 123) or 100 nM 441-551 a.a. region of human PDK1 were incubated with 15 nM TMR-labeled PIP3, PIP2, or PIP5 in buffer containing 50 mM Tris-HCl (pH 7.5), 150 mM NaCl, and 5 mM b-ME for 15 min at room temperature in the dark. FP values were determined using Wallac Victor 3 plate reader. […]

HUVEC = test: Endothelial tube formation assay on Matrigel; format: cell-based, human; conditions: P>0.05
Procedure: The tube formation assay was performed in 96-well plates. Wells were pre-coated with 70 μl of the Matrigel basement membrane matrix (BD Biosciences) per well for 1 hr at 37° C. HUVEC were suspended in serum-free M199 medium and plated on Matrigel at a density of 2×10^4 cells per well. PIT-1 was added at indicated concentrations (3.125-100 μM). After an 8 hr incubation at 37° C., phase-contrast images of the endothelial tubes were obtained using a Nikon TE2000 microscope, and tube formation was assessed by counting the number of closed tubes in five random fields from each well.

U87MG cells = test: Cell death in U87MG cells overexpressing PH domain-deficient constitutively active Akt; format: cell-based, human
Procedure: To further confirm the mode of action of PIT-1 in the cells is directly related to the inhibition of PIP3/Akt PH domain interaction, induction of cell death in cells overexpressing constitutively active Akt lacking PH domain, but containing a membrane-targeting myristoylation signal, was tested. […] This is not unexpected, considering that another PIT-1 target, PDK1, regulates cell survival through both Akt-dependent and Akt-independent pathways.

Chain of WAVE2 (Q9Y6W5 whole entry, species assumed, the tested form may be a part): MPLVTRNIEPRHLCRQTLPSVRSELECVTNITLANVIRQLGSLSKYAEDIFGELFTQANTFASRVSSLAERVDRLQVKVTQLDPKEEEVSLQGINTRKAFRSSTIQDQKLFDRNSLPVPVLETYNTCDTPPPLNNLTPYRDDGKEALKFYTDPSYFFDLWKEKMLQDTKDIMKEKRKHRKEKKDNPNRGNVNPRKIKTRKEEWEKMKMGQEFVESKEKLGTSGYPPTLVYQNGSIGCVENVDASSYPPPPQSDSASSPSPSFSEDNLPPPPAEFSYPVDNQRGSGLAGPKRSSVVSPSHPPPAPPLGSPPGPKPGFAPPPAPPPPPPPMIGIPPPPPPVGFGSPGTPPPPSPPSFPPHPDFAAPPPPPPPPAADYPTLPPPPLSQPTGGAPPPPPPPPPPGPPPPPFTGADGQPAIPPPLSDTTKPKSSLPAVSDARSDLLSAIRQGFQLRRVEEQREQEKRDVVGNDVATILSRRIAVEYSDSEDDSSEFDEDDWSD
Chain of VAV2 (P52735 whole entry, species assumed, the tested form may be a part): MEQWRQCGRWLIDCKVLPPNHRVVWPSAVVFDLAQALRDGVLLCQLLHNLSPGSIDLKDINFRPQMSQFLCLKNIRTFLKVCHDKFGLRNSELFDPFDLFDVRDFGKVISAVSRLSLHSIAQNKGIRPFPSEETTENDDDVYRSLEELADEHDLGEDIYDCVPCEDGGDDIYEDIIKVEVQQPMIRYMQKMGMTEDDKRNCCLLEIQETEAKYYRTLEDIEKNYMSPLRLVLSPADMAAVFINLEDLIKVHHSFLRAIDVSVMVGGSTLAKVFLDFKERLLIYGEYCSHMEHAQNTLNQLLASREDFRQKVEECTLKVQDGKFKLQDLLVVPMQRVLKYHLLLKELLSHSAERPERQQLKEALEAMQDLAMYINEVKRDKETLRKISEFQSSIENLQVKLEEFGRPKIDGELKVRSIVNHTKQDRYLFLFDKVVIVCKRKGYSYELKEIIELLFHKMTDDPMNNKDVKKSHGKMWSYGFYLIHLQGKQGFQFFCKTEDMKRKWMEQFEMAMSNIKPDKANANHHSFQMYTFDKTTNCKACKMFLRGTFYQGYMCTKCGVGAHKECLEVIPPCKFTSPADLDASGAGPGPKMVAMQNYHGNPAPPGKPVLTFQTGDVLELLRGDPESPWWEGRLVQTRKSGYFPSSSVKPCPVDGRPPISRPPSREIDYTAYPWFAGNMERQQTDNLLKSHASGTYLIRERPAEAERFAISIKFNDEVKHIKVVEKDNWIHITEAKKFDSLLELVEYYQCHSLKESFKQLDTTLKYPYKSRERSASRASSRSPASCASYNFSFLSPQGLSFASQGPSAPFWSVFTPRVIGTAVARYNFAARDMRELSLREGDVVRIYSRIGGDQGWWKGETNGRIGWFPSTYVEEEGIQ
Chain of PLC-δ PH domain (P51178 21-130): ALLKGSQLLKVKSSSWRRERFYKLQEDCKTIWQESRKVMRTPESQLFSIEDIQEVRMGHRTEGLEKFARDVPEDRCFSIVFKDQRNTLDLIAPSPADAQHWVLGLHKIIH
Chain of R86A mutant of the PH domain (P31749 1-123 R86A): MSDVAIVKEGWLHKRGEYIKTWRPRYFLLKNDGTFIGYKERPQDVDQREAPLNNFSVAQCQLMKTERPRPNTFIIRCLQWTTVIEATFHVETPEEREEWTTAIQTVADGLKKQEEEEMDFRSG
Chain of Bcl-xL (Q07817 whole entry, species assumed): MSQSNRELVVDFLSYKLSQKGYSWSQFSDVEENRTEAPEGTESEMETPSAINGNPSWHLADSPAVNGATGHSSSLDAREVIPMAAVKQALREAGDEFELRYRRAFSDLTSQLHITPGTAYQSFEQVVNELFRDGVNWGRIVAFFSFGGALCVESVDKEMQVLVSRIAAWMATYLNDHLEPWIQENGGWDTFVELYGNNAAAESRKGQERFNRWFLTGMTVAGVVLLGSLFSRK

O=C(NC(=S)Nc1cc([N+](=O)[O-])cc(Cl)c1O)c1ccccc1 [PIT-1]
plasma membrane translocation of VAV2 (VAV2): significantly inhibited the translocation | plasma membrane translocation of WAVE2 (WAVE2): suppressed the plasma membrane translocation | cancer cell invasion through matrigel (cancer cells): efficiently suppressed cancer cell invasion through matrigel | cytotoxic effects at concentrations used in migration and invasion experiments (cancer cells; P>0.05): no significant cytotoxic effects | acquisition of invasive phenotype by SUM-159 cells (cancer cells; reversible): blocked acquisition of the invasive phenotype | fMLP-stimulated polarization of differentiated HL-60 neutrophils [1]: efficient inhibition | activation of Rac1 caused by growth factor stimulation (Rac1): efficiently suppressed the activation of Rac1 | changes in HSQC spectra of Bcl-xL (Bcl-xL): did not elicit any changes | PI3K-PDK1-Akt signaling in SUM159 cells (PI3K-PDK1-Akt signaling): significantly suppressed PI3K-PDK1-Akt signaling | effect on R86A mutant PH domain (HSQC) [2]: no effect | inhibition of interaction between PIP2 and PH domain of PLC-δ (PLC-δ PH domain): failed to inhibit | cell viability under tube formation conditions (HUVEC): No loss of cell viability | effect of overexpressed PH domain-deficient Akt on killing of U87MG cells (U87MG cells): significantly protected U87MG cells from PIT-1 killing
